In US9440962B2, “Benzisoxazoles” (Hoffmann-La Roche Inc., priority 2012, dated 2016):

What was measured:
[1] = tested on: human embryonic stem cell derived neural stem cells (NSCs); assay: Neural stem cell proliferation assay (neurogenesis assay, ATP levels by CellTiterGlo); assay type: cell-based; conditions: 96 h, compound concentration at which 150% activity of control (100%) is reached, ATP levels after 4 days incubation, dose response 8 μM to 8 nM
Experimental: Neural Stem Cell Proliferation Assay
Neurogenic properties of small molecules are determined based on the proliferation of human embryonic stem cell derived neural stem cells (NSCs) which were derived via a dual smad inhibition as previously described (Chambers, S. M., et al., Highly efficient neural conversion of human ES and iPS cells by dual inhibition of SMAD signaling, Nature biotechnology, 2009. 27(3): p. 275-80.)
Compounds respond is measured by the increase in cells based on ATP levels (Promega:CellTiterGlo®) after an incubation period of 4 days.
NSCs are thawed and expanded over 3 passages. On the 14th day, NSCs are seeded in Polyornithin/Laminin coated 384 well plates at a cell density of 21′000 cells/cm^2 in a media volume of 38 μl.
4 hours after cell seeding, compound solutions are added at a volume of 2 μl. Stock solutions of the compounds (water, 5% DMSO) are diluted to obtain a dose response (11 points, dilution factor is 2), ranging from 8 μM to 8 nM. Controls are run to consistently determine the neurogenic properties of the cells: • Negative (neutral) control is cell culture Media (final DMSO concentration: 0.25%). Positive controls are: • 1. cell culture Media+100 ng/ml FGF2 (final DMSO concentration: 0.1%) • 2. cell culture Media+20 ng/ml EGF (final DMSO concentration: 0.1%) • 3. cell culture Media+100 ng/ml Wnt3a (final DMSO concentration: 0.1%)
After 4 days incubation at 37° C., 5% CO2, the amount of ATP per well is quantified. The ATP concentration is proportional to the cell number. ATP is quantified by using the Promega CellTiterGlo® kit. The CellTiterGlo® reagents contain a cell lysis buffer, a thermo stable luciferase (UltraGlo™ recombinant luciferase), magnesium and luciferin. Luciferin reacts with ATP producing oxyluciferin, AMP and light. The luminescence signal is proportional to the ATP content.
The value of negative (neutral) control is determined for each assay plate by taking the average of 16 negative control wells. The neurogenic compound response is calculated for each compound as (compound/Negative Control)* 100.
The values of EC150 from the dose response curve are determined for each test compound. The EC150 is the compound concentration at which 150% activity of control (100%) is reached.

| melting point [°C] | Compound | EC (150% of control) [1] [µM] |
| --- | --- | --- |
| 154 | Fc1ccc(-n2nccc2-c2ccc3noc(-c4cccs4)c3c2)cc1 [Example 44, 5-[2-(4-Fluoro-phenyl)-2H-pyrazol-3-yl]-3-thiophen-2-yl-benzo[c]isoxazole] | 0.17 |
| 163 | c1ccc(-c2onc3ccc(-c4ccnn4-c4ccccc4)cc23)cc1 [Example 34, 3-Phenyl-5-(2-phenyl-2H-pyrazol-3-yl)-benzo[c]isoxazole] | 0.13 |
| 159 | Fc1ccc(-c2onc3ccc(-c4ccnn4-c4ccc(F)cc4)cc23)cc1 [Example 8, 3-(4-Fluoro-phenyl)-5-[2-(4-fluoro-phenyl)-2H-pyrazol-3-yl]-benzo[c]isoxazole] | 0.25 |
| 198 | Cc1ccc(-n2nccc2-c2ccc3noc(-c4ccc(F)c(F)c4)c3c2)cc1 [Example 38, 3-(3,4-Difluoro-phenyl)-5-(2-p-tolyl-2H-pyrazol-3-yl)-benzo[c]isoxazole] | 0.48 |
| 188 | Fc1ccc(-n2nccc2-c2ccc3noc(-c4ccc(Cl)cc4)c3c2)cc1 [Example 12, 3-(4-Chloro-phenyl)-5-[2-(4-fluoro-phenyl)-2H-pyrazol-3-yl]-benzo[c]isoxazole] | 0.26 |
| 158 | Cc1ccc(-c2onc3ccc(-c4ccnn4-c4ccc(F)cc4)cc23)cc1 [Example 11, 5-[2-(4-Fluoro-phenyl)-2H-pyrazol-3-yl]-3-p-tolyl-benzo[c]isoxazole] | 0.23 |

The remaining lines, values behind:

| Compound | melting point [°C] | EC (150% of control) [1] [µM] |
| --- | --- | --- |
| Fc1cccc(-c2onc3ccc(-c4ccnn4-c4ccc(Cl)cc4)cc23)c1 [Example 26, 5-[2-(4-Chloro-phenyl)-2H-pyrazol-3-yl]-3-(3-fluoro-phenyl)-benzo[c]isoxazole] | 184 | 1.3 |
| Fc1ccc(-c2onc3ccc(-c4ccnn4-c4cccc(F)c4)cc23)cc1 [Example 9, 3-(4-Fluoro-phenyl)-5-[2-(3-fluoro-phenyl)-2H-pyrazol-3-yl]-benzo[c]isoxazole] | 175 | 2.8 |
| Fc1ccc(-c2onc3ccc(-c4ccnn4-c4ccccn4)cc23)cc1 [Example 35, 3-(4-Fluoro-phenyl)-5-(2-pyridin-2-yl-2H-pyrazol-3-yl)-benzo[c]isoxazole] | 175 | 0.04 |
| Fc1ccccc1-n1nccc1-c1ccc2noc(-c3ccc(Br)cc3)c2c1 [Example 7, 3-(4-Bromo-phenyl)-5-[2-(2-fluoro-phenyl)-2H-pyrazol-3-yl]benzo[c]isoxazole] | 202 | 0.054 |
| Cc1ccc(-n2nccc2-c2ccc3noc(-c4cccc(F)c4)c3c2)cc1 [Example 15, 3-(3-Fluoro-phenyl)-5-(2-p-tolyl-2H-pyrazol-3-yl)-benzo[c]isoxazole] | 207 | 0.14 |
| Clc1ccc(-c2onc3ccc(-c4ccnn4-c4ccc(Cl)cc4)cc23)cc1 [Example 27, 3-(4-Chloro-phenyl)-5-[2-(4-chloro-phenyl)-2H-pyrazol-3-yl]-benzo[c]isoxazole] | 222 | 0.46 |
| Cc1ccc(-c2onc3ccc(-c4ccnn4-c4ccccc4Cl)cc23)cc1 [Example 43, 5-[2-(2-Chloro-phenyl)-2H-pyrazol-3-yl]-3-p-tolyl-benzo[c]isoxazole] | 176 | 0.15 |
